We go through 33 molecules from US10730863B2, “Bridged bicyclic compounds as farnesoid X receptor modulators” (BRISTOL-MYERS SQUIBB COMPANY, priority 2017, dated 2020).

In one assay the test system is Fgf15. Briefly: Acute mouse PK/PD: Fgf15 gene expression in ileum. The format is in vivo. To be noted: for Fgf15 (fold change@ 6 h relative to Vehicle): mouse PD. On the procedure:
(§1) In Vivo Testing Example: Acute Mouse PK/PD
(§2) Male, C57BL6/NTac mice, weighing 25-28 g, are purchased from Taconic Labs (Hudson, N.Y.) and maintained on Teklad Global 18% Protein Rodent Diet (Harlan Laboratories). After 1 week acclimation, mice are sorted into groups based upon body weight. Mice are administered a single oral dose of vehicle or experimental compound. Systemic compound exposure is evaluated in plasma derived from blood collected via the submandibular vein at 1 hour post-dose, and at study termination (6 h). At study termination, the animals are euthanized and rapidly dissected. The medial lobe of the liver is divided, with one half being homogenized and analyzed for compound exposure, and the other half saved in RNAlater (Thermo-Fisher Scientific). The ileum is also dissected and preserved in RNAlater. Tissue samples in RNAlater are homogenized with MP Biomedicals' beads. RNA is extracted using the MagMax-96 Total RNA Isolation kit (Thermo-Fisher Scientific) according to the manufacturer's protocol. RNA Concentration is determined with the Nano-Drop 8000 Spectrophotometer (Thermo Fisher). Reverse transcription is done with Invitrogen's SuperScript® VILO cDNA Synthesis Kit according to the manufacturer's protocol. Real time PCR is done with Applied Biosystems' Taqman PCR master mixture according to the manufacturer's protocol. All primers are purchased from Thermo-Fisher Scientific. Mouse genes analyzed include Nr0b2 (which encodes the small heterodimer partner, SHP), Abcb11 (which encodes the bile salt excretion pump, BSEP), Cyp7a1, & Cyp8b1 in liver, and Fgf15, Fabp6 (which encodes ileal bile acid binding protein, I-BABP), Slc51a (which encodes organic solute transporter alpha subunit, OSTA), and Slc51b (which encodes organic solute transporter beta subunit, OSTB) in the ileum. The statistical significant changes in FGF15 gene expression are expressed as fold increase and CYP7A1 expression as a percent reduction relative to vehicle control.

The target in assay [1] is T1, FXR (Homo sapiens (Human), UniProt Q96RI1). Briefly: transient human FXR/Gal4-luciferase reporter assay. To be noted: Gal4-hFXR LBD fusion in HEK293 reporter cells; relative to 8 μM GW-4064. It counts as cell-based. The protocol: The exemplified compounds of the present invention were tested in the transient human FXR/Gal4-luciferase reporter assay, and assay results were described in the EXAMPLES section hereinbefore.
A Gal4-hFXR fusion construct reporter system was used as the primary assay to characterize compound activity. A construct including 5 copies of the Gal4 promoter response element upstream of a firefly luciferase reporter cDNA was stably expressed in HEK293 cells. This reporter cell line was maintained in Dulbecco's Modified Eagle's medium (DMEM; Gibco) supplemented with 1% penicillin-streptomycin (P/S) solution, 500 μg/ml Zeocin and 10% charcoal/dextran-treated fetal bovine serum (cs-FBS) at 37° C. in a humidified 5% CO2 atmosphere. Another plasmid was constructed in which the human cytomegalovirus promoter in the pcDNA3.1 vector directs the expression of the cDNA encoding a fusion protein comprised of the DNA binding domain from the Gal4 transcription factor fused to the ligand binding domain from human FXR.
The day prior to transfection, the reporter cells in culture are detached from the plate with trypsin and plated into a T75 flask at a sufficient density to achieve approximately 90% confluence the next morning. The transfection reagents are prepared by separately diluting 25 μg of the pcDNA3.1-Gal4-FXR plasmid into 1.87 mL of Opti-MEM (Thermo-Fisher), and 40 μL of Lipofectamine 2000 (Thermo-Fisher) into 1.87 mL of Opti-MEM, and then adding the diluted DNA solution into the diluted Lipofectamine 2000 solution and incubating at room temperature for 15-20 minutes. The mixture is further diluted with 10 mL of a solution comprised of DMEM, 10% cs-FBS, and 1% P/S immediately prior to transferring to the cells. The maintenance culture media is aspirated from the cells and the final transfection mixture is added before the cells are incubated overnight at 37° C. in a humidified 5% CO2 atmosphere. This protocol can be scaled up, and the transiently transfected cells can be cryopreserved in an assay-ready format.
For compound testing, 100 nL of the compounds (serial dilutions in DMSO) are dispensed with an Echo acoustic dispenser (Labcyte) into the wells of a Corning/Costar clear bottom 384-well white plate. The transfected cells are harvested, counted, and diluted such that 10-25,000 cells in 25 μL are plated into each well of the 384-well compound assay plate. The compound-treated cells are incubated overnight at 37° C. in a humidified 5% CO2 atmosphere. The next morning 25 μL of Steady-Glo (Promega) are added to each well of the plate, the mixture is incubated for 15 min. with shaking, and luminescence is measured on an Envision (Perkin Elmer) plate reader. Background counts from cells treated with DMSO alone are subtracted from all raw counts, and the corrected values are converted to a percentage of the control response attained with 8 μM GW-4064.

The next assay relates to Cyp7a1. Briefly: Acute mouse PK/PD: Cyp7a1 gene expression in liver. The format is in vivo. To be noted: for Cyp7a1 (fold change@ 6 h relative to Vehicle): mouse PD. The protocol:
as §1, §2

Assay [2] addresses T1, FXR. Briefly: FXR EC50 (FXR agonist activity reported with each example). The format is cell-based.
The test system of another assay is Cypa7a1, Ffg15. Briefly: Mouse in vivo (Cyp7a1 / Fgf15 response). To be noted: 3 mg/kg, @ 6 h.

T1 sequence (Q96RI1 262-486): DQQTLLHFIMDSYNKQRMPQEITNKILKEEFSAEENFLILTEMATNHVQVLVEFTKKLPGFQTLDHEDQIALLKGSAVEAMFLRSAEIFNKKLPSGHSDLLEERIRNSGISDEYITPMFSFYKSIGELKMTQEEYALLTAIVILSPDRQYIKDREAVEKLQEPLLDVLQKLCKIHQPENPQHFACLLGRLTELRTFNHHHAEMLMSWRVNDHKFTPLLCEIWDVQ

As to `CN1CCN(c2nc(C(=O)O)cc3ccc(/C=C/C45CCC(OCc6c(-c7c(Cl)cncc7Cl)noc6C6CC6)(CC4)CC5)cc23)CC1` [Example 629], the “Mouse in vivo Fgf15 (printed Ffg15), fold increase relative to vehicle” value with Fgf15 (mouse, 3 mg/kg single oral dose, @ 6 h, ileum) was “+7.1 x”. At FXR [1], it took 35 nM to reach a half-maximal effect (EC50). The “Mouse in vivo Cyp7a1 (printed Cypa7a1), change relative to vehicle” value in the assay with Cyp7a1 (mouse, 3 mg/kg single oral dose, @ 6 h, liver) is given as −97%.
The molecule `O=C(O)c1cc(C(F)(F)F)c2cc(OCC34CCC(OCc5c(-c6c(Cl)cncc6Cl)noc5C5CC5)(CC3)CC4)ccc2n1` [Example 101, 6-((4-((5-cyclopropyl-3-(3,5-dichloropyridin-4-yl)isoxazol-4-yl)methoxy)bicyclo[2.2.2]octan-1-yl)methoxy)-4-(trifluoromethyl)quinoline-2-carboxylic acid] had an EC50 at FXR [2] of 8 nM. Also, the “Fgf15 (fold change@ 6 h relative to Vehicle)” value in the assay with Fgf15 (dose 3 mg/kg) came to 21 fold change. In addition, the “Cyp7a1 (fold change@ 6 h relative to Vehicle)” value in the assay on Cyp7a1 (dose 3 mg/kg) is on record as 0.06 fold change.
On to `O=C(O)Cc1ccc(/C=C/C23CCC(OCc4c(-c5c(Cl)cncc5Cl)noc4C4CC4)(CC2)CC3)c(C(F)(F)F)c1` [Example 621], for which the EC50 at FXR [1] was determined as 43 nM.
At FXR [1], `CCc1cc(OCC23CCC(OCc4c(-c5c(Cl)cncc5Cl)noc4C4CC4)(CC2)CC3)nn1CC(=O)O` [Example 524] had an EC50 of 1500 nM.
Still for that read-out and setting: next, `O=C(O)c1cnc(N2CCC2)c(C#CC23CCC(OCc4c(-c5c(Cl)cncc5Cl)noc4C4CC4)(CC2)CC3)c1` [Example 562]: 21 nM; `O=C(O)c1cc2ccc(C#CC34CCC(OCc5c(-c6c(Cl)cncc6Cl)noc5C5CC5)(CC3)CC4)cc2c(N2CCC2)n1` [Example 559]: 20 nM.
As to `CC(C)Oc1cc(C(=O)O)nc2ccc(CCC34CCC(OCc5c(-c6c(Cl)cncc6Cl)noc5C5CC5)(CC3)CC4)cc12` [Example 586], the EC50 at FXR [1] amounted to 30 nM.
As to `O=C(O)c1ccn2cc(OCC34CCC(OCc5c(-c6c(Cl)cncc6Cl)noc5C5CC5)(CC3)CC4)nc2c1` [Example 538], a half-maximal effect at FXR [1] (EC50) was put at 90 nM.
On to `O=C(O)c1cc(/C=C/C23CCC(OCc4c(-c5c(Cl)cncc5Cl)noc4C4CC4)(CC2)CC3)ccn1` [Example 626], for which, at FXR [1], the 50% effective concentration (EC50) is 879 nM.
In turn, `O=C(O)c1cc2ccc(/C=C/C34CCC(OCc5c(-c6c(Cl)cncc6Cl)noc5C5CC5)(CC3)CC4)cc2c(OC2CCC2)n1` [Example 613] gave an EC50 on FXR [1] of 298 nM.
On the same count and under the same terms, next, `O=C(O)c1cc(OCC23CCC(OCc4c(-c5c(Cl)cncc5Cl)noc4C4CC4)(CC2)CC3)nn1CC1CC1` [Example 528]: 16 nM.
Regarding `CCn1nc(OCC23CCC(OCc4c(-c5c(Cl)cncc5Cl)noc4C4CC4)(CC2)CC3)c(C)c1C(=O)O` [Example 530], at FXR [1], the midpoint of the response, the EC50, lay at 219 nM.
For `CCc1nc(C(=O)O)cc2ccc(OCC34CCC(OCc5c(-c6c(Cl)cncc6Cl)noc5C5CC5)(CC3)CC4)cc12` [Example 529], the EC50 at FXR [1] is 9 nM.
As to `O=C(O)c1cc2ccc(/C=C/C34CCC(OCc5c(-c6c(Cl)cncc6Cl)noc5C5CC5)(CC3)CC4)cc2c(N2CC(O)C2)n1` [Example 610], the midpoint of the response at FXR [1], the EC50, lay at 77 nM.
Still for that read-out and setting: next, `Cc1nc(NCC23CCC(OCc4c(-c5c(Cl)cccc5Cl)noc4C4CC4)(CC2)CC3)sc1CC(=O)O` [Example 577]: 860 nM; `Cn1nc(C(=O)O)cc1OCC12CCC(OCc3c(-c4c(Cl)cncc4Cl)noc3C3CC3)(CC1)CC2` [Example 526]: 296 nM.
As for `COc1ccc(/C=C/C23CCC(OCc4c(-c5c(Cl)cncc5Cl)noc4C4CC4)(CC2)CC3)cc1CCC(=O)O` [Example 605], the EC50 at FXR [1] is 432 nM.
Still for that read-out and setting: next, `O=C(O)COCc1ccc(C#CC23CCC(OCc4c(-c5c(Cl)cncc5Cl)noc4C4CC4)(CC2)CC3)nc1` [Example 569]: 1360 nM.
As for `O=C(O)c1cc2ccc(C#CC34CCC(OCc5c(-c6c(Cl)cncc6Cl)noc5C5CC5)(CC3)CC4)cc2c(N2CC(O)C2)n1` [Example 552], the response at FXR [1] was half-maximal at 100 nM (EC50).
Regarding `CCOc1cc(C(=O)O)nc2ccc(/C=C/C34CCC(OCc5c(-c6c(Cl)cncc6Cl)noc5C5CC5)(CC3)CC4)cc12` [Example 598], the EC50 at FXR [1] is 11 nM.
With `O=C(O)c1cc(OCC23CCC(OCc4c(-c5c(Cl)cncc5Cl)noc4C4CC4)(CC2)CC3)n(C2CC2)n1` [Example 541], at FXR [1], the EC50 was 59 nM.
Regarding `O=C(O)c1cccc(-c2noc(C34CCC(OCc5c(-c6c(Cl)cccc6Cl)noc5C5CC5)(CC3)CC4)n2)c1` [Example 27], the “Fgf15 (fold change@ 6 h relative to Vehicle)” value in the assay on Fgf15 (dose 30 mg/kg) was determined as 2.8 fold change. The “Cyp7a1 (fold change@ 6 h relative to Vehicle)” value in the assay with Cyp7a1 (dose 30 mg/kg) came to 0.10 fold change.
For `O=C(O)c1cc(C(F)(F)F)cc(COCC23CCC(OCc4c(-c5c(Cl)cncc5Cl)noc4C4CC4)(CC2)CC3)n1` [Example 527], at FXR [1], the EC50 is 86 nM.
Still for that read-out and setting: next, `COC1CN(c2nc(C(=O)O)cc3ccc(/C=C/C45CCC(OCc6c(-c7c(Cl)cncc7Cl)noc6C6CC6)(CC4)CC5)cc23)C1` [Example 609]: 67 nM.
Same read-out and setting: next, `O=C(O)c1cc2ccc(/C=C/C34CCC(OCc5c(-c6c(Cl)cncc6Cl)noc5C5CC5)(CC3)CC4)cc2c(N2CC(F)C2)n1` [Example 611]: 22 nM; `Cn1c(C(=O)O)cc2c(/C=C/C34CCC(OCc5c(-c6c(Cl)cncc6Cl)noc5C5CC5)(CC3)CC4)cccc21` [Example 597]: 208 nM.
For the molecule `O=C(O)CCc1cc(/C=C/C23CCC(OCc4c(-c5c(Cl)cncc5Cl)noc4C4CC4)(CC2)CC3)ccc1OCC(F)F` [Example 624], the EC50 on FXR [1] stood at 438 nM.
As to `Cc1c(OCC23CCC(OCc4c(-c5c(Cl)cncc5Cl)noc4C4CC4)(CC2)CC3)nn(CC2COC2)c1C(=O)O` [Example 533], the midpoint of the response on FXR [1], the EC50, lay at 1910 nM.
Consider `O=C(O)COc1cc(/C=C/C23CCC(OCc4c(-c5c(Cl)cncc5Cl)noc4C4CC4)(CC2)CC3)ccn1` [Example 617], for which a half-maximal effect at FXR [1] (EC50) was put at 1460 nM.
For the molecule `CN1CCN(c2nc(C(=O)O)cc3ccc(C#CC45CCC(OCc6c(-c7c(Cl)cncc7Cl)noc6C6CC6)(CC4)CC5)cc23)CC1` [Example 519, 7-((4-((5-cyclopropyl-3-(3,5-dichloropyridin-4-yl)isoxazol-4-yl)methoxy)bicyclo[2.2.2]octan-1-yl)ethynyl)-1-(4-methylpiperazin-1-yl)isoquinoline-3-carboxylic acid], it took 28 nM to reach a half-maximal effect on FXR [2] (EC50). Besides, in the assay on Cypa7a1, Ffg15, the Cypa7a1 is −92% and the Ffg15 entry is reported as “+1.4 ×”.
On to `CC(F)(F)c1cc(OCC23CCC(OCc4c(-c5c(Cl)cncc5Cl)noc4C4CC4)(CC2)CC3)cnc1C(=O)O` [Example 536], for which the EC50 on FXR [1] came to 55 nM.
The same measure, in the same setting: next, `COc1ncc(C(=O)O)cc1C#CC12CCC(OCc3c(-c4c(Cl)cncc4Cl)noc3C3CC3)(CC1)CC2` [Example 563]: 16 nM; `Cc1c(OCC23CCC(OCc4c(-c5c(Cl)cncc5Cl)noc4C4CC4)(CC2)CC3)nn(C)c1C(=O)O` [Example 534]: 248 nM.
